According to US20160279135A1, “THERAPIES FOR TREATING MYELOPROLIFERATIVE DISORDERS” (Gilead Sciences, Inc., priority 2013, published 2016):
Where “and” joins values, the source holds several entries; their conditions need not be identical. Equal values may be shown once. Read-outs that look alike come from different tables or passages of the source.

Tests used:
p-AKT Ser473 [1] = assay: Western blot of AKT phosphorylation in BaF3/MPL cells; type: cell-based; settings: 2 h, then TPO 50 ng/mL 10 min, vs vehicle
Description: (§1) In addition, Compound B was examined for the effects on the PI3K signaling pathway by determining the levels of AKT and S6 phosphorylation with or without TPO activation. Two cell lines, BaF3/MPL and UT-7/TPO sensitive or responsive to TPO activation were used. The cells were starved (i.e. growing on medium having less FBS) in […] FBS/RPMI for two hours before treated with 0.1, 1.0, or 2.0 μM of Compound B or vehicle (0.1% DMSO in RPMI) for 2 hours at 37° C. To examine the TPO-activated phosphorylation, the cells were then treated or activated with 50 ng/mL of human recombinant TPO (Peprotech) for 10 minutes at 37° C. The TPO activation or treatment may reflect the conditions in diseased cells as the PI3K pathway is activated by TPO in myelofibrosis. After treating with compound and/or TPO, the cells were collected, lysed by lysis buffer (Cell Signaling), separated by SDS-PAGE, and analyzed by the Western blot using antibodies specific to p-AKT Ser473 or pS6 Ser235/236 (Cell Signaling). The phosphorylation levels in treated cells were calculated and compared to those of untreated cells (i.e. vehicle as negative control).

p-AKT Ser473 [2] = assay: Western blot of AKT phosphorylation in UT-7/TPO cells; type: cell-based; settings: 2 h, then TPO 50 ng/mL 10 min, vs vehicle
Description: as §1

p-STAT5 = assay: flow cytometry of p-STAT5 in TPO-stimulated CD34+ cells from MF patients on chronic ruxolitinib (Example 8); type: cell-based, human; settings: 2 h, then TPO 50 ng/mL, one value per patient, TPO vehicle = 100
Description: In this study, PBMCs were isolated from the whole blood from five MF patients receiving chronic ruxolitinib treatment (rux 1-rux 5). The cells were treated with either vehicle, ruxolitinib, and/or Compound B for 2 hours then stimulated with TPO (50 ng/mL) for 10 minutes. Ruxolitinib at the dose of 1 or 20 nM and Compound B at the dose of 45, 200, or 700 nM were used.
The treated cells were then fixed, permeabilized and stained for FACS analysis using FACSCalibur analyzed using BD FACSDiva software.

Pfeiffer cells = assay: CellTiter-Glo cell viability of Pfeiffer cells with IL6; type: cell-based; settings: Homo sapiens, 96 h, n=4, read-out: percentage of viable Pfeiffer cells, AVG; for viability at […]: 74 nM Compound B; for viability at 0.2 µM: 200 nM Compound B; for viability at 0.421 µM: 421 nM Compound B
Description: Next, Pfeiffer cells were treated with IL6 (0 or 3 ng/mL), Compound A (0, 136, 272, or 695 nM), and/or Compound B (0, 74, 200, or 421 nM) (n=4 per group) for 96 hours.
Cellular viability was determined using the CellTiter-Glo Luminescent Cell Viability Assay (Promega). The percentage of viable cells was normalized to the groups that were not treated with Compound A or Compound B, and standard deviation was calculated.

`CC[C@H](Nc1ncnc2[nH]cnc12)c1nc2cccc(F)c2c(=O)n1-c1ccccc1` [Compound B, (S)-2-(1-((9H-purin-6-yl)amino)propyl)-5-fluoro-3-phenylquinazolin-4(3H)-one] was tested, and the “reduced p-AKT levels” value (p-AKT Ser473 [1]; 0.1 μM) was 51%, the “reduced p-AKT levels” value (p-AKT Ser473 [1]; 1.0 μM) was 64% and the “reduced p-AKT levels” value (p-AKT Ser473 [2]; 0.1 μM) was 11%. The “reduced p-AKT levels” value (p-AKT Ser473 [2]; 1.0 μM) was 44%, the “reduced p-AKT levels” value (p-AKT Ser473 [2]; 2.0 μM) was 55% and the “percentage of the p-STAT5 levels” value (p-STAT5; Compound B 45 nM) was 92% (2×) and 85% and 95% and 83%. The “percentage of the p-STAT5 levels” value (p-STAT5; Compound B 200 nM) was 93% and 83% and 91% and 72% and 90%, the “percentage of the p-STAT5 levels” value (p-STAT5; Compound B 700 nM) was 88% and 86% and 82% and 106% and 78% and the viability at […] (Pfeiffer cells; IL6 0 ng/mL) was 72%. The viability at […] (Pfeiffer cells; IL6 3 ng/mL) was 95%, the viability at 0.2 µM (Pfeiffer cells; IL6 0 ng/mL) was 63% and the viability at 0.2 µM (Pfeiffer cells; IL6 3 ng/mL) was 91%. For the same compound, the viability at 0.421 µM (Pfeiffer cells; IL6 0 ng/mL) was 54% and the viability at 0.421 µM (Pfeiffer cells; IL6 3 ng/mL) was 83%.
